Assay results as given in US7829300B2 (priority 2002, dated 2010).

What was measured:
[1] = test system: P2Y2 receptor; experiment: Cytoplasmic Ca2+ measurement with ATP alone in CHOK1-μ-K32 cells (endogenous P2Y2); type: cell-based
[2] = target: T1, P2X7 (Homo sapiens, UniProt Q99572); details: P2X7 versus P2Y2; cited from earlier work
T1 sequence (Q99572 1-595): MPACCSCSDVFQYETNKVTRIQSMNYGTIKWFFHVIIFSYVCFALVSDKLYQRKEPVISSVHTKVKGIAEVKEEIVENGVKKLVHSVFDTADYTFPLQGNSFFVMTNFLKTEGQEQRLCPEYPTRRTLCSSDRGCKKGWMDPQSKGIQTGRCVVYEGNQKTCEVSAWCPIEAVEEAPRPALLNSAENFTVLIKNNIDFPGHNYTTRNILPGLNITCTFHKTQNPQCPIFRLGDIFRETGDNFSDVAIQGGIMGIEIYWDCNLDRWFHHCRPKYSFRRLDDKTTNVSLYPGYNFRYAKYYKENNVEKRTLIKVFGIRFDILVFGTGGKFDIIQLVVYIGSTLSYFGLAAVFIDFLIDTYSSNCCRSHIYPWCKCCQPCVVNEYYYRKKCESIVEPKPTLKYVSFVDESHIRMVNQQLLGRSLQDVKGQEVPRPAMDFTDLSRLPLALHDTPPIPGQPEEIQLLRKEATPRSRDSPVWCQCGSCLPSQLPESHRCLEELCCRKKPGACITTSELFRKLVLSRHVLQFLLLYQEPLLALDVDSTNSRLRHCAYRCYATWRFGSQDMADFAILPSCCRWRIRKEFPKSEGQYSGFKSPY

[3] = test system: CHOK1-empty (mock) strain; type: cell-based
[4] = target: T2, μ opioid receptor (Homo sapiens, UniProt P35372); type: cell-based
T2 construct: expressed in transfected cells; host or cells: CHO K1 (clone CHOK1-μ-K32)
T2 sequence (P35372 whole entry, species assumed): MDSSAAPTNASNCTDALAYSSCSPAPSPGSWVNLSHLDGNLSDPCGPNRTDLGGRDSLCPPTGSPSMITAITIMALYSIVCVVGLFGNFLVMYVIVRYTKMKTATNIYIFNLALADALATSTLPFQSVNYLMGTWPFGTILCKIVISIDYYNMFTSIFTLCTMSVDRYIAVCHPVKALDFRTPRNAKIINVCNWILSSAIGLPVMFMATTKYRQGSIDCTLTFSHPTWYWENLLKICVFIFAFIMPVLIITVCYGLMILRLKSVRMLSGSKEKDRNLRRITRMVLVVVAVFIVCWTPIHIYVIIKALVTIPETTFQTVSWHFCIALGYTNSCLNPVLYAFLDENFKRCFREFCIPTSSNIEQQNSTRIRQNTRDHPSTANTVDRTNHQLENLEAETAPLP

[5] = target: T3, 5HT-1B receptor (Cricetulus griseus, UniProt P46636); experiment: Cytoplasmic Ca2+ measurement (FLIPR, fluo-4) of the endogenously expressed 5HT-1B receptor in CHO K1 cells; type: cell-based; details: serotonin concentration 10 μM, 100 nM ATP, CHOK1-ORL-K66, mean of four measurements
T3 construct: the 5HT-1B receptor endogenously expressed by the CHO cells; endogenous in cells; host or cells: CHO K1 (CHOK1-ORL-K66)
T3 sequence (P46636 whole entry): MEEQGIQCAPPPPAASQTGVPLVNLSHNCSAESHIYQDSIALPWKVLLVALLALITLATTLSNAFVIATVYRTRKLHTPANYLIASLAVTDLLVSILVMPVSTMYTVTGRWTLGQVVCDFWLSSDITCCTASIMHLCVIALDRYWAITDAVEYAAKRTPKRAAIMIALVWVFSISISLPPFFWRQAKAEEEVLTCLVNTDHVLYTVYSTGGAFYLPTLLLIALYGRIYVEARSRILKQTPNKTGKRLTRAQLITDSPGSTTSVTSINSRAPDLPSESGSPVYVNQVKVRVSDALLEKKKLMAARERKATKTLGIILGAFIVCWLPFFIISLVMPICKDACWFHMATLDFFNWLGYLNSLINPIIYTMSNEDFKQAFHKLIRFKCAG
Description: The cytoplasmic Ca^2+ concentration was measured in all the Examples using the FLIPR Calcium Plus Assay Kit and a corresponding FLIPR device from Molecular Devices, according to the manufacturer's instructions.
In brief, on the day preceding the experiment, the cells to be measured were plated out in a suitable 96-well cell culture plate, in a density of 25,000 cells per well, in a volume of 100 μl of the appropriate medium. Cell culture plates from Becton-Dickinson (order no. 66440) coated with poly-D-lysine were used for the test. On the day of the test, the cells were loaded with fluo-4. To that end, a vial of fluo-4 was dissolved in 23 μl of DMSO and 23 μl of Pluronic F 127. 42 μl of the solution were added to 21 ml of HBSS (+Probenecid and Hepes). 50 μl of this solution per well were added to the cells, the plates being incubated, for loading, for 30 minutes at 37° C., 5% CO2, 98% relative humidity. In order to remove excess loading solution, the plates were washed three times with 200 μl of HBSS in a washing device for 96-well plates. This was followed by a dispension step, in which in each case 100 μl of HBSS were added to the cells. […]
Compared with the negative control, the addition of the 5HT-1B agonist serotonin produced a marked signal intensification in the fluorescence measurement (FIG. 6).

Nc1ncnc2c1ncn2[C@@H]1O[C@H](COP(=O)(O)OP(=O)(O)OP(=O)(O)O)[C@@H](O)[C@H]1O [ATP]
fluorescence signal ([1]; 300 nM ATP, absence of DAMGO, CHOK1-μ-K32): more than 1000 relative units | ATP concentration at which a change in the fluorescence is detectable ([1]; ATP on its own, CHO-μ-K32 cells): ≥ 300 nM | ATP binding to P2X7 relative to P2Y2 (times more weakly) [2]: about 100 times

C[C@@H](NC(=O)[C@@H](N)Cc1ccc(O)cc1)C(=O)NCC(=O)N(C)[C@@H](Cc1ccccc1)C(=O)NCCO [DAMGO]
effect of DAMGO on the ATP-triggered fluorescence signal [3]: not affected | fluorescence signal in non-transfected CHOK1 cells [3]: none of the μ-receptor agonists used gave a fluorescence signal above the background | fluorescence intensity in dependence on concentration [4]: conventional dose-response curve | fluorescence signal [4]: about 300 relative units

NCCc1c[nH]c2ccc(O)cc12 [serotonin]
fluorescence intensity on average [5]: 1337 relative units
